Where two headings read alike, the source gives them in different places.
Tests used:
[1] = system: carrageenin-induced oedema in rat paw; test: Carrageenin-induced oedema in rat paw; type: in vivo; conditions: 2 mg/Kg i.v. 5 minutes before 1.5 mg carrageenin intraplantar, paws weighed 3 hours later, saline controls = 100%
Protocol: Test 3—Reduction in Inflammation in Carrageenin-Induced Oedema in Rat Paw
A model of acute inflammation induced by intraplantar injection of 1.5 mg of carrageenin in rat paw was used. Administration of the compounds (2 mg/Kg) was by the intravenous route 5 minutes before oedema was induced: 3 hours later the animals were sacrificed and their paws were weighed as an indication of inflammation. The control animals received saline instead of the test compounds. The weight of the paws of the control animals was taken to correspond to 100% on the inflammation index.

nitrite-nitrate release = test: Inhibition of the release of nitrite-nitrate in rat plasma after LPS; type: in vivo; conditions: 25 mg/Kg o.s. 30 minutes before and 3 hours after LPS 0.1 mg/Kg i.v., blood 8 hours after LPS, Griess reagent, saline controls = 100%
Protocol: Test 4—Inhibition of the Release of Nitrite-Nitrate in Rat Plasma
The release of nitrite-nitrite was measured with Griess reagent in blood samples taken 8 hours after the administration of LPS (0.1 mg/Kg) i.v.
The animals were treated with the compounds by o.s. (25 mg/Kg) 30 minutes before and 3 hours after LPS. The control animals received saline instead of the test compounds. The values for the release of nitrite-nitrate were made to correspond to 100%.

[2] = system: TNF release, murine macrophage line (J774); test: Inhibition of TNF release after stimulation with LPS in vitro, J774 macrophages (L929 mortality readout); type: cell-based; conditions: J774 macrophages stimulated with LPS, concentration (± standard error) inhibiting L929 fibroblast mortality by 50%, read-out: J774 CI50
Protocol: (§1) Test 1—Inhibition of TNF Release After Stimulation with LPS in vitro
(§2) The test compound was added to the culture medium in a murine macrophage line (J774) or to whole blood anti-coagulated with heparin. The cells were then stimulated with bacterial lipopolysacccharide. After incubation at 37° C. for a suitable length of time, the supernatant was removed from the culture and incubated with a line of murine fibroblasts (L929), sensitive to TNF. The quantity of TNF released after stimulation with LPS is measured by comparing mortality of the L929 cells with that of the controls. Table 1 reports for the single compounds the concentration (±standard error) able to inhibit fibroblast mortality (L929) by 50%.

TNF release, human blood = test: Inhibition of TNF release after stimulation with LPS in vitro, whole blood (L929 mortality readout); type: cell-based; conditions: heparinised whole blood stimulated with LPS; concentration (± standard error) inhibiting L929 fibroblast mortality by 50%; read-out: Human blood CI50
Protocol: as §1, §2

[3] = system: superoxide anions, human whole blood; test: Inhibition of superoxide anion formation induced by f-MLP in human whole blood; type: cell-based; conditions: 20 minutes preincubation at 37° C., f-MLP with cytochalasin B, read-out: CI50 (superoxide anion formation, Cytochrome C)
Protocol: Test 5—Inhibition of the Formation of Superoxide anions Induced by f-MLP in Human Whole Blood
Samples of whole blood diluted with PBS Cytochrome C were incubated for 20 minutes at 37° C. with the test compounds or saline before adding the chermotactic agent f-MLP (0.1 μm/l) in the presence of cytochalasin B. After 20 minutes of activation with this agent, the samples were centrifuged and readings were taken of the supernatants with a spectrophotometer to assess the reduction in Cytochrome C. Table 5 reports the concentrations that are effective in inhibiting the loss of Cytochrome C by 50%.

[4] = system: platelet aggregation, human whole blood; test: Inhibition of collagen-induced platelet aggregation in human whole blood; type: cell-based; conditions: collagen 1 μg/ml, 1 minute preincubation, count 5 minutes after collagen, vs saline, read-out: CI50 (platelet aggregation)
Protocol: Test 6—Inhibition of Collagen-Induced Platelet Aggregation in Human Whole Blood
The aggregation event was analysed by counting the single non-aggregated platelets with a cell counter 5 minutes after adding collagen (1 μg/ml). In these working conditions, collagen induces platelet aggregation of over 80%. The test compounds or saline as control were preincubated for 1 minute before the collagen was added.
Table 6 reports the concentrations that inhibit platelet aggregation by 50% compared to saline.

[5] = system: Salmonella typhimurium (TA 98 and TA 100) and Escherichia coli (WP2 pKM101 and WP2 uvrA pKM1091); test: Mutagenesis (Mini-Ames test); type: cell-based; conditions: with and without microsomal liver enzyme preparation
Protocol: Test 8—Mutagenesis (Mini-Ames Test)
The Mini-Ames test is a version of the traditional Ames test which involves the incubation of bacterial cells on 35-mm dishes instead of 100-mm dishes, and it requires a smaller quantity of product while maintaining the reliability of the result.
The test is conducted on two strains of Salmonella typhimurium requiring histidine (TA 98 and TA 100) and two strains of Escherichia coli requiring tryptophan (WP2 pKM101 and WP2 uvrA pKM1091).
The bacterial cells were exposed to different concentrations of the test compounds in the presence and absence of a microsomal liver enzyme preparation, to reveal any possible metabolite activity.
Mutagenic activity was determined as the ability of the test compound to induce a significant increase in the number of mutant clones compared to those developed spontaneously in the cultures with the control vehicle.

Male CD-1 mice = test: Toxicity after a single intravenous administration; type: in vivo
Text: (§3) Test 7—Toxicity After a Single Intravenous Administration
(§4) Male CD-1 mice were used to assess the maximum non-lethal does (MNLD—the highest does at which no cases of mortality are observed) and the maximum tolerated does (MTD—does at which no evident or marked signs of tocicity or altered behaviour are observed).

TNF = test: Inhibition of the release of TNF following stimulation with LPS in vivo; conditions: rat, blood 75 minutes after LPS, ELISA, vs saline controls
Protocol: (§5) Test 2—Inhibition of the Release of TNF and IL-β Following Stimulation with LPS in vivo
(§6) Conscious rats were injected with a dose of LPS, which is able to stimulate the release of TNF and IL-1β, having first received an intravenous administration (15 minutes beforehand) of the test compound at a dose of 0.5 mg/Kg or 2 mg/Kg. Blood levels of TNF and IL-1β were measured by the ELISA method on blood samples taken 75 minutes and 120 minutes after LPS respectively.
(§7) Table 2 below reports the percent of inhibition of each product compared to that of the controls treated with saline.

IL-1β = test: Inhibition of the release of IL-1β following stimulation with LPS in vivo; conditions: rat, blood 120 minutes after LPS, ELISA, vs saline controls
Protocol: as §5, §6, §7

[6] = Toxicity after a single intravenous administration; type: in vivo; conditions: mouse, in vivo, male CD-1 mice, read-out: DMT (maximum tolerated dose, MTD)
Text: as §3, §4

[7] = dose of 0.5 mg/Kg i.v. 15 minutes before LPS
[8] = dose of 2 mg/Kg i.v. 15 minutes before LPS
[9] = iv, dose of 0.5 mg/Kg i.v. 15 minutes before LPS
[10] = iv, dose of 2 mg/Kg i.v. 15 minutes before LPS

Structure (SMILES) | /o vs controls (paw weight, inflammation index) [1] | % vs controls (release of nitrite-nitrate) (nitrite-nitrate release) [%] | IC50 [2] [µM] | IC50 (TNF release, human blood) [µM] | IC50 [3] [µM] | IC50 [4] [µM] | Mutagenic activity (Mini-Ames test) [5] | DMNL (maximum non-lethal dose, MNLD) (Male CD-1 mice) | DMT (maximum tolerated dose, MTD) (Male CD-1 mice) [mg/kg] | % of inhibition of TNF (TNF; [7]) [%] | % of inhibition of TNF (TNF; [8]) [%] | % of inhibition of IL-1β (IL-1β; [7]) [%] | % of inhibition of IL-1β (IL-1β; [8]) [%] | IC50 ([2]; Mus musculus) [µM] | IC50 ([4]; Platelet) [µM] | MTD [6] [mg/kg] | inhibition at 0.5 mg/kg (TNF; [9]) [%] | inhibition at 2 mg/kg (TNF; [10]) [%] | inhibition at 0.5 mg/kg (IL-1β; [9]) [%] | inhibition at 2 mg/kg (IL-1β; [10]) [%]
C[C@H]1C[C@@H]2[C@H]([C@@H](O)C[C@@]3(C)[C@H]2CC[C@]3(O)C(=O)CO)[C@@]2(C)C=CC(=O)C=C12 [Methylprednisolone, reference compound] | 56 /o |  |  |  |  |  |  |  |  |  |  |  |  |  |  |  |  |  |  | 
C[C@H]1C[C@H]2[C@@H]3CCC4=CC(=O)C=C[C@]4(C)[C@@]3(F)[C@@H](O)C[C@]2(C)[C@@]1(O)C(=O)CO [Betamethasone, reference compound] |  | 20 |  |  |  |  |  |  |  |  |  |  |  |  |  |  |  |  |  | 
COc1ccc2c(c1)c(CC(=O)O)c(C)n2C(=O)c1ccc(Cl)cc1 [Indomethacin, reference compound] | 57 /o |  |  |  |  |  |  |  |  |  |  |  |  |  |  |  |  |  |  | 
C=CCc1cc2c(C)c(CN3CCOCC3)c(=O)oc2c(CC=C)c1OCCCOc1c(CC=C)cc2c(C)c(CN3CCOCC3)c(=O)oc2c1CC=C.Cl.Cl [Compound 203152] | 90 /o | 108 | 13.3 ± 9 | > 80 | > 100 | > 100 | None of the tested compounds (203152, 201273, 201326 and 201330) proved to be mutagenic | 200 mg(Kg | 50 | 72 | 73 | 64 | 60 |  |  |  |  |  |  | 
CCOC(=O)COc1ccc2c(C)c(CCN(CC)CC)c(=O)oc2c1Cl [Compound 201006, Cloricromene, reference compound] | 79 /o | 99 |  | 78.6 ± 10 | 52 |  |  | 12.5 mg(Kg |  |  |  |  |  | 57.9 ± 20 | 35 | 6.25 | 9 | 30 | 45 | 28
CCN(CC)CCc1c(C)c2ccc(OCC(=O)NC3CCCCC3)c(Cl)c2oc1=O.Cl.Cl [Compound 201330] | 77 /o |  | 12 ± 3.9 | 12.6 ± 3.5 | 36 | 93 | None of the tested compounds (203152, 201273, 201326 and 201330) proved to be mutagenic | 50 mg(Kg | 25 | 75 | 62 | 33 | 57 |  |  |  |  |  |  | 
CCCCC(O)COc1ccc2c(C)c(CCN(CC)CC)c(=O)oc2c1.Cl (centres unmarked) [Compound 201273] | 67 /o | 76 | 27.5 ± 5.3 | 40.4 ± 13.5 | > 100 | > 100 | None of the tested compounds (203152, 201273, 201326 and 201330) proved to be mutagenic | 100 mg(Kg | 25 | 72 | 84 | 67 | 39 |  |  |  |  |  |  | 
CCCCC[C@H](O)/C=C/[C@@H]1[C@H]2C/C(=C/CCCC(=O)O)O[C@H]2C[C@H]1O [PG12, reference compound] |  |  |  |  |  | 0.05 |  |  |  |  |  |  |  |  |  |  |  |  |  | 
CCCCC(O)COc1ccc2c(C)c(CCN(CC)CC)c(=O)oc2c1Cl.Cl (centres unmarked) [Compound 201326] | 58 /o | 62 | 10.5 ± 3 | 23 ± 2 | > 100 | 78 | None of the tested compounds (203152, 201273, 201326 and 201330) proved to be mutagenic | 50 mg(Kg | 6.25 | 85 | 77 | 40 | 62 |  |  |  |  |  |  | 
CCOC(=O)[C@@H](N)CSCC(O)COc1ccc2c(C)c(CCN(CC)CC)c(=O)oc2c1.Cl.Cl (some centres unmarked) [Compound 201261] | 86 /o | 98 | 25.4 | 9 |  | > 100 |  | 200 mg(Kg | 50 |  |  |  |  |  |  |  |  |  |  | 
